Measured values taken from patent US12459940B2, “Oxazole compound as multi-targeted inhibitor of IRAK4 and BTK” (SHANGHAI FOSUN PHARMACEUTICAL INDUSTRIAL DEVELOPMENT CO., …, priority 2019, dated 2025).

Columns and labels:
TNF-α secretion = assay: In vivo pharmacodynamic study of LPS-induced TNF-α secretion in SD rats; conditions: SD rat, oral
Protocol: SD rats were orally given the solvent, the positive drug dexamethasone (DEX, 0.5 mg/kg) and the tested compound, and LPS (1 mg/kg) was intraperitoneally injected 0.5 hours after the administration. Two hours after LPS injection, the animals were euthanized by CO2, and blood samples were collected from the heart and placed in an anticoagulant tube containing EDTA-K2, then partial anticoagulated blood was centrifuged to separate the plasma and the plasma was frozen at −80° C.
The plasma was taken out of the refrigerator at −80° C., thawed at room temperature, and the concentration of TNF-α in the plasma was detected according to the ELISA kit instructions.
The experimental data were expressed by Mean±standard error (Mean±SEM), and the level of TNF-α was expressed by One-way ANOVA, and p<0.05 was considered as a significant difference. The result of in vivo pharmacodynamic study of TNF-α secretion in SD rats induced by […] (LPS) are shown in FIG. 1

human IRAK4 = biological target: T1, human IRAK4 (Homo sapiens, UniProt Q9NWZ3); assay: In vitro IRAK4 kinase activity, 33P isotope-labeled kinase activity assay (Reaction Biology Corp); assay type: biochemical; conditions: 33P-ATP, 120 minutes at room temperature; read-out: IRAK4/IC50
T1 construct: purchased Reaction Biology Corp
T1 sequence (Q9NWZ3 1-460): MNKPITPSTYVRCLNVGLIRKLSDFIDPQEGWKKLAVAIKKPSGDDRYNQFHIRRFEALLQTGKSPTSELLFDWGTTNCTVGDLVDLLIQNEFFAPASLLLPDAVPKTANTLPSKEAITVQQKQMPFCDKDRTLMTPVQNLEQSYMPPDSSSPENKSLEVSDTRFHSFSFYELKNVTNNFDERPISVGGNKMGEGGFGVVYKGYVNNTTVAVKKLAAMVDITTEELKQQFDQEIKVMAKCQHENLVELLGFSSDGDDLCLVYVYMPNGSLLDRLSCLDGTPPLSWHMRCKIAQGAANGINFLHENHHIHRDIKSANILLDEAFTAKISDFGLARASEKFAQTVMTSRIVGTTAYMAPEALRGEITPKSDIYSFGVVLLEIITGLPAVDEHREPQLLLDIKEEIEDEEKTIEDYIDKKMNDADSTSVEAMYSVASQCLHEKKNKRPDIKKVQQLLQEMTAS
Protocol: The IC50 values were determined using ^33P isotope-labeled kinase activity assay (Reaction Biology Corp) to evaluate the inhibitory ability of the tested compounds on human IRAK4.
(§1) Buffer conditions: 20 mM Hepes (pH 7.5), 10 mM MgCl2, 1 mM EGTA, 0.02% Brij35, 0.02 mg/mL BSA, 0.1 mM Na3VO4, 2 mM DTT, 1% DMSO.
Test procedure: At room temperature, the tested compound was dissolved in DMSO to prepare a 10 mM solution for later use. The substrate was dissolved in a newly prepared buffer solution, and the tested IRAK4 kinase was added thereto and mixed evenly. The DMSO solution dissolved with the tested compound was added to the above reaction mixture mixed evenly using acoustic technique (Echo 550). After incubation for 15 minutes, ^33P-ATP was added to initiate the reaction.

[1] = system: OCI-LY10 human B-cell lymphoma cells; assay: OCI-LY10 cell proliferation inhibition (CellTiter-Glo); assay type: cell-based; conditions: OCI-Ly10, 72 h, treated for 3 days
Protocol: OCI-LY10 human B-cell lymphoma cells were cultured in a 37° C., 5% CO2 incubator. The composition of medium was IMDM (GIBCO, Cat #12440053); the supplementary compositions were 20% FBS (Hyclone, Cat #SH30084.03); 1% PenStrep (Thermo, Cat #SV30010).
The tumor cell lines OCI-LY10 and TMD8 were used to detect the effect of the compound on inhibiting tumor cell proliferation in vitro. The tumor cell line was cultured in a 37° C., 5% CO2 incubator according to the culture conditions shown, and passaged regularly, then the cells in the logarithmic growth phase were taken, counted, and spread in a 96-well plate (the cells in each well were adjusted to an appropriate concentration, a total of […] per well was added). After incubating overnight in a 37° C., 5% CO2 incubator, drugs with different concentration gradients (10 μL of drug solution was added) were added and treated for 3 days, then 50 μL of CellTiter-Glo working solution was added to each well, and the cell plate was wrapped with aluminum foil to avoid light. The culture plate was shaken on an orbital shaker for 2 minutes to induce cell lysis, and placed at room temperature for 10 minutes to stabilize the luminescence signal, then the luminescence signal was detected on the 2104 EnVision plate reader.
The Inhibition rate (IR) of the tested compound was calculated using the following formula: IR (%)=(1−(RLU compound−RLU blank control)/(RLU solvent control−RLU blank control))*100%.
The inhibition rates of different concentrations of the compounds were calculated in Excel, and then the inhibition curves were made by GraphPad Prism software and the related parameters were calculated, including the minimum inhibition rate, the maximum inhibition rate and IC50.

human BTK = biological target: T2, human BTK (Homo sapiens, UniProt Q06187); assay: In vitro BTK kinase activity, 33P isotope-labeled kinase activity assay (Reaction Biology Corp); assay type: biochemical; conditions: 33P-ATP, 2 hours at room temperature
T2 construct: purchased Reaction Biology Corp
T2 sequence (Q06187 whole entry): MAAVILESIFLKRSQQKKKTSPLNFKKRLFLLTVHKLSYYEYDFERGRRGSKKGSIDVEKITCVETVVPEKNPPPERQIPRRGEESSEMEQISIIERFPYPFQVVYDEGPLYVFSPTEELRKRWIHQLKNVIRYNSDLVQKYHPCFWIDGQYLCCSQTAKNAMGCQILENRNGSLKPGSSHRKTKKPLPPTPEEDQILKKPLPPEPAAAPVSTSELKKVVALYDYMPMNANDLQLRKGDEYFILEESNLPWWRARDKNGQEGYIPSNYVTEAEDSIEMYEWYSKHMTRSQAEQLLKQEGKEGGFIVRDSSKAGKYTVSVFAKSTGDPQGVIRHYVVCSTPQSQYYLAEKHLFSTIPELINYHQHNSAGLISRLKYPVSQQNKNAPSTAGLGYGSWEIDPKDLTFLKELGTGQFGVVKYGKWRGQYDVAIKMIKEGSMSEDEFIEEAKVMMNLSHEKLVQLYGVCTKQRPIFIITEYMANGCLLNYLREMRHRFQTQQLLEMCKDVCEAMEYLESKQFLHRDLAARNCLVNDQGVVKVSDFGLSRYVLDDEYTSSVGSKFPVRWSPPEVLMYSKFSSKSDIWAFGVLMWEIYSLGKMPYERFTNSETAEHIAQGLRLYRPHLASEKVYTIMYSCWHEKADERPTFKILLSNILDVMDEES
Protocol: The IC50 values were determined using ^33P isotope-labeled kinase activity assay (Reaction Biology Corp) to evaluate the inhibitory ability of the tested compounds on human BTK.
as §1
Test procedure: At room temperature, the tested compound was dissolved in DMSO to prepare a 10 mM solution for later use. The substrate was dissolved in a newly prepared buffer solution, and the tested BTK kinase was added thereto and mixed evenly. The compound dissolved in DMSO was added to the kinase reaction mixture through Echo 550 (Acoustic technology; Nanoliter range). After incubation for 20 minutes at room temperature, ^33P-ATP was added to initiate the reaction. The reaction was carried out at room temperature for 2 hours, and the radioactivity of the reaction liquid point was detected by filtration-binding method with P81 ion exchange filter paper. The kinase activity data were expressed by comparing the kinase activity of the group containing the tested compound with the kinase activity of the blank group (only containing DMSO), and the IC50 value was obtained by curve fitting by Prism4 software (GraphPad), the experimental results are shown in Table 10.

Cc1cc(-c2nc(C(=O)Nc3cn4cc(CCC(C)(C)O)nc4cc3N3CCCCC3)co2)ccn1 [WX001]
inhibitory effect on TNF-α secretion induced by LPS (TNF-α secretion; LPS 1 mg/kg intraperitoneal 0.5 hours after administration, plasma 2 hours after LPS): significant inhibitory effect
efficacy on LPS-induced TNF-α secretion compared with dexamethasone (TNF-α secretion; dose of 20 mpk): equivalent to the efficacy of dexamethasone (DEX) at a dose of 0.5 mpk
IC50 (human IRAK4): 1 nM
IC50 [1]: 128 nM
IC50 (human BTK): 6.7 nM
